Test results: publication PMC12693419, “Design, Synthesis, Biological Evaluation, and In Silico Studies of Novel Multitarget Cinnamic Acid Hybrids” (Molecules, 2025)

Legend:
bovine serum albumin = target: T1, bovine serum albumin (Bos taurus, UniProt P02769); test: In vitro inhibition of albumin denaturation; conditions: heat denaturation, 60 °C 10 min
T1 construct: bovine serum albumin solution (fraction V); purchased Merck and Sigma-Aldrich; host or cells: bovine serum (fraction V)
Description: The ability of a compound to inhibit the thermal denaturation of albumin is considered an indicator of anti-inflammatory activity. Heat exposure simulates conditions of cellular stress or inflammation, during which protein and tissue damage occur. Certain substances can protect proteins from denaturation upon heating by stabilizing their structure and preventing aggregation and precipitation.
Inhibition of albumin denaturation was measured following the reported method. In a test tube, 1 mL of bovine serum albumin solution (fraction V, 1% w/v in phosphate buffer, pH 7.4) and 100 μL of the test compound solution were added sequentially. The mixture was incubated at 37 °C for 15 min, followed by heating at 60 °C for 10 min. After cooling to room temperature, the absorbance was measured at 660 nm. DMSO was used as the blank, and the results were compared to acetylsalicylic acid, which served as the reference compound (Table 6).

HeLa cells = test: MTT viability assay; format: cell-based; conditions: Homo sapiens, 48 h
Description: (§1) HeLa, MCF-7, U251, U87, MDA-MB-435, and MDA-MB-231 cancer cell lines were maintained in incubators at 37 °C with 5% CO2 in DMEM medium supplemented with 10% (v/v) fetal bovine serum (FBS) and antibiotics/antimycotics. All cell lines used in this study originate from the Laboratory of Biochemistry, Department of Chemistry, Aristotle University of Thessaloniki. They are low-passage, mycoplasma-free cancer cell lines that have been extensively used over the past 25 years in numerous studies across various fields of cancer research, including drug cytotoxicity testing.
(§2) All cell lines tested were seeded in 96-well plates at a concentration of 6 × 10^3 cells per well, except HeLa, which were seeded at 3 × 10^3 cells per well. The day after, cells were exposed to increasing concentrations of the compounds for 48 h. Cell viability was determined using the 3-(4,5-dimethylthiazol-2-yl)-2,5-diphenyltetrazolium bromide (MTT) assay, a colorimetric assessment of cellular metabolic activity as described previously. Absorbance values from treated samples were normalized to those of untreated controls, which were assigned to a 100% viability value.

MCF-7 cells = test: MTT viability assay; format: cell-based; conditions: Homo sapiens, MCF7, 48 h
Description: as §1, §2

[1] = In vitro inhibition of linoleic acid lipid peroxidation (AAPH); conditions: 100 μM; anti-lipid peroxidation
Excerpt: In the present study, the aim was to evaluate the anti-lipid peroxidation activities of the synthesized compounds 5a–i, 6a–i, 9a–i, and 11 and compare their efficacy to that of Trolox, a well-known antioxidant. Using the water-soluble compound 2,2′-azobis(2-amidinopropane) hydrochloride (AAPH), peroxyl radicals are generated through spontaneous thermal decomposition in vitro. This experimental setup imitated the lipid peroxidation processes occurring in cells due to radical activity allowing the investigation of the effectiveness of the tested compounds under conditions resembling cellular oxidative stress.
An in vitro assay was performed following previously established protocols. The compound 2,2′-Azobis(2-methylpropionamidine) dihydrochloride (AAPH) was used as a controlled source of thermally generated alkylperoxy free radicals. The formation of conjugated diene hydroperoxides through the oxidation of sodium linoleate in an aqueous dispersion at 37 °C was measured by monitoring absorbance at 234 nm. The results were compared with the reference compound, Trolox (93%) (Table 6).

COX-1 = target: T2, COX-1 (Homo sapiens, UniProt P23219); test: In vitro inhibition of COX-1; format: biochemical
T2 construct: purchased Merck and Sigma-Aldrich
Excerpt: Enzyme inactivation can occur due to the accumulation of hydroperoxides formed from arachidonic acid or other fatty acid substrates. In order to prevent this in the in vitro experiment used for testing COX inhibition activity of the new molecules, a co-substrate like N,N,N′,N′-tetramethyl-p-phenylenediamine (TMPD) is included, as it undergoes co-oxidation by PGG2. The oxidized TMPD has a maximum absorbance at 590 nm. COX enzymes also depend on heme (Fe^3+-protoporphyrin IX) as a cofactor, which can dissociate during purification. To ensure maximum enzyme activity, heme is added to the reaction mixture during the in vitro assay for ovine COX-2 inhibition and COX-1 inhibition.
Cyclooxygenase (COX) activity was measured using arachidonic acid (AA) as the substrate and N,N,N′,N′-tetramethylphenylenediamine (TMPD) as the co-substrate following the reported method. […] The substrate oxidation was monitored at room temperature by recording the increase in absorbance at 590 nm. Absorbance due to the spontaneous oxidation of TMPD was subtracted from the initial oxidation rate observed in the presence of AA. The inhibitory activity of the test compounds at a concentration of 100 μM was evaluated after a 6-min pre-incubation with the enzyme in the presence of heme and TMPD.

ovine COX-2 = target: T3, ovine COX-2 (Ovis aries, UniProt P79208); test: In vitro inhibition of ovine cyclooxygenase-2
T3 sequence (P79208 17-603): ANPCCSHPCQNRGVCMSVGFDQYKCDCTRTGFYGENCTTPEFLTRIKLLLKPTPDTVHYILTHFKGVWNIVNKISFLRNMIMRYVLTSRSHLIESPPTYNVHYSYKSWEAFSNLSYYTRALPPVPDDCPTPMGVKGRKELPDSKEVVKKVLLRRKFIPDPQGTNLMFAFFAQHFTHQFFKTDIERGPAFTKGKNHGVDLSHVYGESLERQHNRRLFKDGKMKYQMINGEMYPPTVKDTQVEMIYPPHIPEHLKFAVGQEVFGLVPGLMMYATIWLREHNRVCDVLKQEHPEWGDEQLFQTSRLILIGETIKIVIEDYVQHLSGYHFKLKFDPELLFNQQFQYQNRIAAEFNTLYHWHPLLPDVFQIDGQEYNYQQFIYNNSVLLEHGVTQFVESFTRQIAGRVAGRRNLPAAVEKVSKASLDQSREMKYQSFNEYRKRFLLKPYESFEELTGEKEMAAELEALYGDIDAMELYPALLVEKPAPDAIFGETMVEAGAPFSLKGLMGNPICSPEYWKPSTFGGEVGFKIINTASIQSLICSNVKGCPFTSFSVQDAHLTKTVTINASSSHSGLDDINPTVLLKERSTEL
Description: In order to prevent this in the in vitro experiment used for testing COX inhibition activity of the new molecules, a co-substrate like N,N,N′,N′-tetramethyl-p-phenylenediamine (TMPD) is included, as it undergoes co-oxidation by PGG2. The oxidized TMPD has a maximum absorbance at 590 nm. […] To ensure maximum enzyme activity, heme is added to the reaction mixture during the in vitro assay for ovine COX-2 inhibition and COX-1 inhibition [63].
The in vitro COX-2 inhibitory activity was assessed using arachidonic acid (AA) as a substrate and N,N,N′,N′-tetramethyl-p-phenylenediamine (TMPD) as a co-substrate in a Tris-HCl buffer (pH 8.5), following the reported method [89]. To the test tube, 10 µL of the compound dissolved in DMSO was added to a mixture containing 730 µL of Tris-HCl buffer (pH 8.5), 50 µL of heme, 10 µL of COX-2 enzyme, and 100 µL of TMPD. The absorbance was measured at 590 nm. […] A blank determination was conducted as a negative control.

[2] = target: T4, soybean lipoxygenase isoenzyme-1 (SLOX-1) (Glycine max, UniProt P08170); test: In vitro inhibition of soybean lipoxygenase; format: biochemical; conditions: pH 9.0
T4 construct: purchased Merck and Sigma-Aldrich
T4 sequence (P08170 1-839): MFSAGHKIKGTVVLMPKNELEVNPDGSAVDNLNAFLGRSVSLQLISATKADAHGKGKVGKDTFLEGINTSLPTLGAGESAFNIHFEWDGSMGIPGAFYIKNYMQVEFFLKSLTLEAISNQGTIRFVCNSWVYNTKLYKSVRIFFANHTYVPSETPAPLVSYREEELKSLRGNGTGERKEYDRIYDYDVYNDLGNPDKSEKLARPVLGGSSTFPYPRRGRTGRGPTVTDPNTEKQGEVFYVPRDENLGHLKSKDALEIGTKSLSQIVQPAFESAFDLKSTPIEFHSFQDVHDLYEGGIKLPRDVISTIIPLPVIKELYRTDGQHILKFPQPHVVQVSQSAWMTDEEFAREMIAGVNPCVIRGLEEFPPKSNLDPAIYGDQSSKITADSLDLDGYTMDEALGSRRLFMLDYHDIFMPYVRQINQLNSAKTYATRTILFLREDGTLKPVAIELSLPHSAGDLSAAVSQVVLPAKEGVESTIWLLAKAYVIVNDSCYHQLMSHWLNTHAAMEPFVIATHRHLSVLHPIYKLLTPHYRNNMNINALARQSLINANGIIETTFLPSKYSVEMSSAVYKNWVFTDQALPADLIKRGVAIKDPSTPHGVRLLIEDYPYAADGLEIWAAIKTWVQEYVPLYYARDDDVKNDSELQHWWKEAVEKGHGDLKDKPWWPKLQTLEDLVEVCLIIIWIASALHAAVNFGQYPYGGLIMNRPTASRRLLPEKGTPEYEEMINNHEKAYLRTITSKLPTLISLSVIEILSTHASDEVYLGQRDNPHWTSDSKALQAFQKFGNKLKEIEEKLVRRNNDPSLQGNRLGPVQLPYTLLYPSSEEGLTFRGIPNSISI
Description: In vitro anti-LOX activities were evaluated using soybean lipoxygenase isoenzyme-1 (SLOX-1), a commonly used model for mammalian LOXs.
An in vitro study was conducted following a previously reported method. The tested compounds were dissolved in DMSO (100 µM) and incubated at room temperature with 0.1 mL of sodium linoleate as the substrate and 0.2 mL of soybean lipoxygenase solution in Tris-HCl buffer (pH 9.0).

T1 sequence (P02769 25-607): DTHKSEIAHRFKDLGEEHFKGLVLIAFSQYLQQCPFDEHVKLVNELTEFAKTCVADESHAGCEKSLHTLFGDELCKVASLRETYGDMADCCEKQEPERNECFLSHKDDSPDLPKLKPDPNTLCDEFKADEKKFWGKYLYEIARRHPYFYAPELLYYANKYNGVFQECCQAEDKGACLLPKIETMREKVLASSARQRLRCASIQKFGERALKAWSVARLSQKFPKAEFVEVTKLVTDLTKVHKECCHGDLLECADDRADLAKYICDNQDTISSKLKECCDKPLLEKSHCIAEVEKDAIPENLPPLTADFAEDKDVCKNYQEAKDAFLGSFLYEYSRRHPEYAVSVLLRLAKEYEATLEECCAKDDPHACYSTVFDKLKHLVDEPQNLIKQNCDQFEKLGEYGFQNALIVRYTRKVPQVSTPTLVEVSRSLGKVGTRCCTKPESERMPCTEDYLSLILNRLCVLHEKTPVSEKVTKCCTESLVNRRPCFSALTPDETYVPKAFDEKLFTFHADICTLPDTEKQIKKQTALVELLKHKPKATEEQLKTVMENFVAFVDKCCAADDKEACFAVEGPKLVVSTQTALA
T2 sequence (P23219 24-599): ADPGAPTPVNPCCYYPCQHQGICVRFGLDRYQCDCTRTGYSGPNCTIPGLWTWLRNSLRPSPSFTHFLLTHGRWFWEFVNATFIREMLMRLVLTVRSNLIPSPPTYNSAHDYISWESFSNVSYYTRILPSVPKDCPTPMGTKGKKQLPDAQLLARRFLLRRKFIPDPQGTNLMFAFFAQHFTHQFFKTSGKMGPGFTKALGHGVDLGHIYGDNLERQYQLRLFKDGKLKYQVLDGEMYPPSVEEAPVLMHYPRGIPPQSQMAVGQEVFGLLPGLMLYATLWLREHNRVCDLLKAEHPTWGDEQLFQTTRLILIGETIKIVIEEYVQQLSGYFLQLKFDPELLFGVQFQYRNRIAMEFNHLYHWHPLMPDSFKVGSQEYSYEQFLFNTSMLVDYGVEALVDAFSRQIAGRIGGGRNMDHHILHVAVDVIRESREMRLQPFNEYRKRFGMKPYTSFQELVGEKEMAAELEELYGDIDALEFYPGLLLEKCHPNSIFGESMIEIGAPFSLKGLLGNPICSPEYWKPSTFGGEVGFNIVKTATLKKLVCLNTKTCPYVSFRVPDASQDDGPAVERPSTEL

Albumin (inhibition of albumin denaturation) (bovine serum albumin): no
EC50 (HeLa cells): 56 µM
EC50 (MCF-7 cells): > 100 µM
inhibition at 100 µM (COX-1): 49%
IC50 (ovine COX-2): 70 µM
LOX Inh. IC50 [2]: no
SMILES: O=C(OCc1c(-c2ccccc2)no[n+]1[O-])/C(=C/c1cccs1)c1ccccc1 [Compound 9i, (E)-4-Phenyl-3-(((2-phenyl-3-(thiophen-2-yl)acryloyl)oxy)methyl)-1,2,5-oxadiazole 2-oxide]
AAPH Inh. at 100 μΜ [1]: no
